Measured values: patent US7371773B2, “Breast cancer resistance protein (BCRP) inhibitor” (Kabushiki Kaisha Yakult Honsha, priority 2003, dated 2008)
Converted amounts (≈) assume the structure as drawn. Like-named read-outs stand apart in the source and are kept apart here.

Legend:
A549 cell line = test: Anticancer drug sensitivity test, A549 cell line; format: cell-based, human; conditions: culturing 48 hours
Protocol: (§1) The A549 cell line or each of the A549/SN-38-1 to 6 was suspended in 10% FBS/Ham's F-12, and the resultant suspension was inoculated into a 96-well microplate, followed by culturing at 5% CO2 and 37° C. overnight. Thereafter, a solution of an anticancer drug in 10% FBS/Ham's F-12 (50 μL) was added to each of the wells, followed by culturing at 5% CO2 and 37° C. for 48 hours. After completion of culturing, the number of viable cells was counted by use of a viable cell counting reagent [TetraColor ONE (trade name), product of Seikagaku Corporation] according to the attached instruction manual. […] “Relative resistance value” is obtained by dividing the IC50 for an A549/SN-38 cell line by the IC50 for the A549 cell line. The greater the relative resistance value, the higher the level of acquired resistance.

A549/SN-38-6 cell line = test: Anticancer drug sensitivity test, A549/SN-38-6; format: cell-based, human; conditions: for IC50: A549/SN-38-6, culturing 48 hours; for Relative resistance value: IC50 for A549/SN-38-6 divided by IC50 for A549
Protocol: (§2) Human non-small cell lung cancer A549 cell line was subcultured at 5% CO2 and 37° C. by use of a Ham's F-12 medium containing 10% FBS, 100 U/mL of penicillin, and 100 μg/mL of streptomycin (10% FBS/Ham's F-12). SN-38-resistant A549 cell lines were selected by subculturing the A549 cell line in a medium for two months while the concentration of SN-38 contained in the medium was increased in a stepwise manner (4 to 10 ng/mL). Subsequently, the resultant SN-38-resistant A549 cell lines were subjected to cloning by means of limiting dilution, to thereby establish six cloned SN-38-resistant A549 cell lines (A549/SN-38-1 to 6).
as §1

A549/SN-38-3 cell line = test: Anticancer drug sensitivity test, A549/SN-38-3; format: cell-based, human; conditions: for IC50: A549/SN-38-3, culturing 48 hours; for Relative resistance value: IC50 for A549/SN-38-3 divided by IC50 for A549
Protocol: as §2, §1

A549/SN-38-4 cell line [1] = test: Anticancer drug sensitivity test, A549/SN-38-4; format: cell-based, human; conditions: for IC50: A549/SN-38-4, culturing 48 hours; for Relative resistance value: IC50 for A549/SN-38-4 divided by IC50 for A549
Protocol: as §2, §1

A549/SN-38-1 cell line = test: Anticancer drug sensitivity test, A549/SN-38-1; format: cell-based, human; conditions: for IC50: A549/SN-38-1, culturing 48 hours; for Relative resistance value: IC50 for A549/SN-38-1 divided by IC50 for A549
Protocol: as §2, §1

A549/SN-38-5 cell line = test: Anticancer drug sensitivity test, A549/SN-38-5; format: cell-based, human; conditions: for IC50: A549/SN-38-5, culturing 48 hours; for Relative resistance value: IC50 for A549/SN-38-5 divided by IC50 for A549
Protocol: as §2, §1

A549/SN-38-2 cell line = test: Anticancer drug sensitivity test, A549/SN-38-2; format: cell-based, human; conditions: for IC50: A549/SN-38-2, culturing 48 hours; for Relative resistance value: IC50 for A549/SN-38-2 divided by IC50 for A549
Protocol: as §2, §1

A549/SN-38-4 cell line [2] = test: Overcoming anticancer drug resistance of A549/SN-38-4 cell line; format: cell-based, human; conditions: Homo sapiens, A549; SN-38 resistance, concentration for 50% reduction of relative resistance value, 48 hours; read-out: Resistance overcoming effect EC50
Protocol: The effect of a diphenylacrylonitrile derivative on BCRP-mediated anticancer drug resistance was studied by use of the human lung cancer A549/SN-38-4 cell line, which had acquired anticancer drug resistance through BCRP expression. The human lung cancer A549 cell line or the A549/SN-38-4 cell line was suspended in 10% FBS/Ham's F-12, and the resultant suspension was inoculated into a 96-well microplate, followed by culturing at 5% CO2 and 37° C. overnight (2×10^3 cells/50 μL/well). Thereafter, a 10% FBS/Ham's F-12 solution (25 μL) containing a diphenylacrylonitrile derivative and SN-38 or mitoxantrone was added to each of the wells, followed by culturing at 5% CO2 and 37° C. for 48 hours. After completion of culturing, the number of viable cells was counted by use of TetraColor ONE according to the attached instruction manual. […] The greater the relative resistance value, the higher the level of acquired resistance.

MES-SA/Dx5 cell line = test: Effect on multidrug resistance of MES-SA/Dx5 cell line; format: cell-based; conditions: Homo sapiens; paclitaxel resistance, MES-SA/Dx5 (P-glycoprotein overexpression), 48 hours; read-out: Resistance overcoming effect EC50
Protocol: Human uterine cancer MES-SA cell line or MES-SA/Dx5 cell line which had acquired multidrug resistance through overexpression of P-glycoprotein [Cancer Res. 45, 4091-4096 (1985)] was suspended in 10% FBS/DMEM, and the resultant suspension was inoculated into a 96-well microplate, followed by culturing at 5% CO2 and 37° C. overnight (3×10^3 cells/50 μL/well). Thereafter, a solution of a diphenylacrylonitrile derivative and paclitaxel in 10% FBS/DMEM (25 μL) was added to each of the wells, followed by culturing at 5% CO2 and 37° C. for 48 hours. After completion of culturing, the number of viable cells was counted by use of TetraColor ONE according to the attached instruction manual.

P388/BCRP cell line = test: Overcoming anticancer drug resistance in vivo (survival of tumor-implanted mice); parameters: species or system CDF1 mice; conditions: Table 6; compound 100 mg/kg/day + CPT-11 20 mg/kg/day i.p. once a day, 10 administrations

| SMILES | IC50 (A549 cell line; Homo sapiens, read-out: IC50) [µg/mL] | IC50 (A549/SN-38-6 cell line; Homo sapiens, read-out: IC50) [µg/mL] | Relative resistance value (A549/SN-38-6 cell line) | IC50 (A549/SN-38-3 cell line; Homo sapiens, read-out: IC50) [µg/mL] | Relative resistance value (A549/SN-38-3 cell line) | IC50 (A549/SN-38-4 cell line [1]; Homo sapiens, read-out: IC50) [µg/mL] | Relative resistance value (A549/SN-38-4 cell line [1]) | IC50 (A549/SN-38-1 cell line; Homo sapiens, read-out: IC50) [µg/mL] | Relative resistance value (A549/SN-38-1 cell line) | IC50 (A549/SN-38-5 cell line; Homo sapiens, read-out: IC50) [µg/mL] | Relative resistance value (A549/SN-38-5 cell line) | IC50 (A549/SN-38-2 cell line; Homo sapiens, read-out: IC50) [µg/mL] | Relative resistance value (A549/SN-38-2 cell line) | EC50 (A549/SN-38-4 cell line [2]) [µg/mL] | EC50 (MES-SA/Dx5 cell line) [µg/mL] | Survival days Mean ± S.D. (P388/BCRP cell line) [days] | T/C (P388/BCRP cell line) [%] | other results |
| --- | --- | --- | --- | --- | --- | --- | --- | --- | --- | --- | --- | --- | --- | --- | --- | --- | --- | --- |
| O=c1[nH]cc(F)c(=O)[nH]1 [5-Fluorouracil] | 2.1 (≈ 16.1 µM) | 1 (≈ 7.69 µM) | (0.5) | 0.69 (≈ 5.3 µM) | (0.3) | 0.91 (≈ 7 µM) | (0.4) | 4.3 (≈ 33.1 µM) | (2.0) | 1.7 (≈ 13.1 µM) | (0.8) | 1.3 (≈ 9.99 µM) | (0.6) |  |  |  |  |  |
| N.N.[Cl][Pt][Cl] [Cisplatin] |  |  | (0.9) |  | (0.8) |  | (0.9) |  | (0.8) |  | (0.9) |  | (0.9) |  |  |  |  | IC50 (A549 cell line): 18.6 µg/mL; IC50 (A549/SN-38-6 cell line): 16.8 µg/mL; IC50 (A549/SN-38-3 cell line): 15.1 µg/mL; IC50 (A549/SN-38-4 cell line [1]): 17.0 µg/mL; IC50 (A549/SN-38-1 cell line): 15.1 µg/mL; IC50 (A549/SN-38-5 cell line): 15.9 µg/mL; IC50 (A549/SN-38-2 cell line): 16.5 µg/mL |
| COc1ccc(/C(C#N)=C/c2cccc(O)c2)cc1OC [Compound 5, (Z)-2-(3,4-dimethoxy-phenyl)-3-(3-hydroxy-phenyl)-acrylonitrile] |  |  |  |  |  |  |  |  |  |  |  |  |  | 0.021 (≈ 0.0747 µM) | > 1 | 19.2 ± 1.1 | 160 |  |
| COc1cc(/C=C(\C#N)c2ccc(OC)c(OC)c2)ccc1O [Compound 7, (Z)-2-(3,4-dimethoxy-phenyl)-3-(4-hydroxy-3-methoxy-phenyl)-acrylonitrile] |  |  |  |  |  |  |  |  |  |  |  |  |  | 0.025 (≈ 0.0803 µM) | > 1 | 20.0 ± 0.7 | 167 |  |
| COc1ccc(/C(C#N)=C/c2ccc(O)c(O)c2)cc1OC [Compound 8, (Z)-3-(3,4-dihydroxy-phenyl)-2-(3,4-dimethoxy-phenyl)-acrylonitrile] |  |  |  |  |  |  |  |  |  |  |  |  |  | 0.035 (≈ 0.118 µM) | > 1 | 19.2 ± 0.8 | 160 |  |
| CCOc1cc(/C=C(\C#N)c2ccc(OC)c(OC)c2)ccc1O [Compound 11, (Z)-2-(3,4-dimethoxy-phenyl)-3-(3-ethoxy-4-hydroxy-phenyl)-acrylonitrile] |  |  |  |  |  |  |  |  |  |  |  |  |  | 0.047 (≈ 0.144 µM) | > 1 | 19.4 ± 0.5 | 162 |  |
| COc1ccc(/C(C#N)=C/c2cccc(F)c2)cc1OC [Compound 13, (Z)-2-(3,4-dimethoxy-phenyl)-3-(3-fluoro-phenyl)-acrylonitrile] |  |  |  |  |  |  |  |  |  |  |  |  |  | 0.013 (≈ 0.0459 µM) | > 1 | 20.6 ± 0.9 | 172 |  |
| N#C/C(=C\c1ccc(O)cc1)c1ccc(O)cc1 [Compound 16, (Z)-2,3-bis-(4-hydroxy-phenyl)-acrylonitrile] |  |  |  |  |  |  |  |  |  |  |  |  |  | 0.098 (≈ 0.413 µM) | > 1 | 19.2 ± 0.4 | 160 |  |
| COc1cccc2c1C(=O)c1c(O)c3c(c(O)c1C2=O)C[C@@](O)(C(=O)CO)C[C@@H]3O[C@H]1C[C@H](N)[C@H](O)[C@H](C)O1 [Doxorubicin] | 0.1 (≈ 0.184 µM) | 0.049 (≈ 0.0902 µM) | (0.5) | 0.12 (≈ 0.221 µM) | (1.3) | 0.22 (≈ 0.405 µM) | (2.3) | 0.19 (≈ 0.35 µM) | (1.9) | 0.057 (≈ 0.105 µM) | (0.6) | 0.14 (≈ 0.258 µM) | (1.4) |  |  |  |  |  |
| COc1cc([C@@H]2c3cc4c(cc3[C@@H](O[C@@H]3O[C@@H]5CO[C@@H](C)O[C@H]5[C@H](O)[C@H]3O)[C@H]3COC(=O)[C@H]23)OCO4)cc(OC)c1O [Etoposide] | 0.9 (≈ 1.53 µM) | 1 (≈ 1.7 µM) | (1.1) | 1.6 (≈ 2.72 µM) | (1.9) | 3.5 (≈ 5.95 µM) | (4.0) | 0.27 (≈ 0.459 µM) | (0.3) | 2.3 (≈ 3.91 µM) | (2.7) | 0.8 (≈ 1.36 µM) | (1.0) |  |  |  |  |  |
| Nc1ccn([C@@H]2O[C@H](CO)[C@@H](O)C2(F)F)c(=O)n1 [Gemcitabine] | 0.009 (≈ 0.0342 µM) | 0.004 (≈ 0.0152 µM) | (0.4) | 0.004 (≈ 0.0152 µM) | (0.4) | 0.0032 (≈ 0.0122 µM) | (0.4) | 0.0039 (≈ 0.0148 µM) | (0.4) | 0.004 (≈ 0.0152 µM) | (0.4) | 0.0053 (≈ 0.0201 µM) | (0.6) |  |  |  |  |  |
| CO[C@@]12[C@H](COC(N)=O)C3=C(C(=O)C(C)=C(N)C3=O)N1C[C@@H]1N[C@@H]12 [Mitomycin C] |  |  | (0.4) |  | (0.3) |  | (1.4) |  | (1.2) |  | (1.0) |  | (1.1) |  |  |  |  | IC50 (A549 cell line): 0.11 µg/mL (≈ 0.329 µM); IC50 (A549/SN-38-6 cell line): 0.047 µg/mL (≈ 0.141 µM); IC50 (A549/SN-38-3 cell line): 0.0029 µg/mL (≈ 0.00867 µM); IC50 (A549/SN-38-4 cell line [1]): 0.15 µg/mL (≈ 0.449 µM); IC50 (A549/SN-38-1 cell line): 0.13 µg/mL (≈ 0.389 µM); IC50 (A549/SN-38-5 cell line): 0.11 µg/mL (≈ 0.329 µM); IC50 (A549/SN-38-2 cell line): 0.11 µg/mL (≈ 0.329 µM) |
